The text below walks through data of US20040259815A1, “Anti-proliferative composition” (priority 2001, published 2004).

The test system of the assay is human prostate cancer cell line PC3. Put plainly: Proliferation of PC3 cells after 4 days exposure (BrdU incorporation and WST-1 assays). Conditions: PC-3, 96 h, component alone, PC3 cells exposed for 4 days. It counts as cell-based. In general terms: Uptake of a labelled nucleoside into DNA is a usual measure of proliferation.

Molecules are shown by their SMILES.

Procedure: Stock solutions were prepared as follows: Genistein and silymarin were dissolved in ethanol. Daidzein and equol were dissolved in dimethyl sulfoxide (DMSO). Lycopene was dissolved in 0.02M HCl
The PC3 cell line (American Type Culture Collection, Mannassas, USA), a highly resistant prostate cancer cell line originating from a metastasis lesion of bone, was maintained as monolayer cultures in RPMI medium (Gibco, Life technologies BV, Breda, Netherlands) supplemented with 5% FCS (Gibco). The cells were grown mycoplasm free in plastic tissue culture flasks (Falcon, Micronic, Lelystad, Netherlands). Cultures were kept in a 5% CO2 humidified atmosphere, at a temperature of 37° C. Media were replaced every 2 or 3 days, and cells were subcultured at weekly intervals using a 0.05% trypsin and 0.01% EDTA.
The PC3 cells were seeded into flat-bottomed 96-well tissue culture treated plates (Falcon, Micronic, Lelystad, Netherlands) at a density of 16000 cells per well. After 24 h incubation, vehicle controls, test components or combinations of the test components were added to the medium (20 μl added to 200 μl medium in well). The components were tested in combination to determine additional or synergistic effects. PC3 cells were exposed for 4 days.
Cell proliferation was quantified by measuring the incorporation of 5-bromo-2′-deoxyuridine (BrdU) during DNA synthesis and by cleavage of tetrazolium salt (WST-1) in viable cells by mitochondrial dehydrogenases. The calorimetric BrdU (immunoassay) and colorimetric WST-1 assay were performed in accordance with the manufacturer's instructions (Roche Diagnostics Mannheim, Germany). Briefly, BrdU-assay: After the exposure period, the cells were treated with BrdU-labeling solution for 3 hours. After labeling, cells were washed with PBS, fixed for 30 minutes and washed again with PBS. After 90 minutes incubation with the anti-BrdU-POD working solution, the cells were washed 3 times. After addition of the substrate, the reaction was stopped with H2SO4. The absorbance was measured at 450 nm with a reference wavelength at 650 nm. WST-1 assay: After the exposure period, the cells were washed with PBS and treated with WST-1 diluted in medium (1:10). After 3 hours incubation, the absorbance was measured at 450 nm with a reference at 595 nm.

On to `O=c1c(-c2ccc(O)cc2)coc2cc(O)cc(O)c12` [Genistein, genistein], for which the inhibition at 27 µg/mL (27 μg/ml, read-out: inhibition of proliferation of human prostate cancer cell line PC3 (mean±s.e.)) was 20.2 ± 4.6%.

Turning to `Oc1ccc([C@H]2COc3cc(O)ccc3C2)cc1` [equol], under “26 μg/ml, read-out: inhibition of proliferation of human prostate cancer cell line PC3 (mean±s.e.)”, the inhibition at 26 µg/mL turned out to be 30.1 ± 4.4%.

Turning to `O=c1c(-c2ccc(O)cc2)coc2cc(O)ccc12` [daidzein], the inhibition at 25 µg/mL (25 μg/ml, stated as not significant, read-out: inhibition of growth of the PC3 cells) came to 10 ± 6%.

As to `CC(C)=CCC/C(C)=C/C=C/C(C)=C/C=C/C(C)=C/C=C/C=C(C)/C=C/C=C(C)/C=C/C=C(\C)CCC=C(C)C` [lycopene], where the note is “53 μg/ml, stated as not significant, read-out: inhibition of growth of the PC3 cells”, the inhibition at 53 µg/mL was found to be 7.3 ± 2.7%.
